The structures appear in SMILES notation.

For the experiment, the target named is T1, human DYRK1A (Homo sapiens, UniProt Q13627).
T1 construct: host or cells: E. coli BL21(DE3)
Nature of the experiment: ELISA DYRK1A non-radioactive phosphorylation assay (HT-PRD substrate). It is filed as biochemical. Here is the method: In order to determine the effectiveness of the DYRK1A inhibitors of the invention, a series of ELISA assays were performed, along with Western Blot assays.
The ELISA assays were devised as a modified form of the assay described in Liu et al. “An ELISA DYRK1A non-radioactive assay suitable for the characterization of inhibitors,” F1000Research 2017, 6:42 (doi: 10.12688/f1000research.10582.1), incorporated by reference herein in its entirety.
Specifically, human DYRK1A (Addgene #38913) and HT-PRD (Addgene #87755) plasmids were obtained from Addgene and were expressed and purified using Ni affinity chromatography, as explained below. Proteins were quantified by the conventional Bradford method and stored at −80° C. until used.
HT-PRD was diluted in dilution buffer (25 mM Tris-HCl, pH 7.4 and 100 mM NaCl) to 4 ng/μL and used to coat a 96-well plate (BD Falcon #353072) with 100 μL per well at 4° C. overnight.
The wells were next washed with dilution buffer 3 times to remove unbound materials, and then the wells were blocked with 150 μL blocking buffer (2% BSA, 1×PBS, and 0.25% Tween 20) at room temperature for 60 minutes with shaking on a shaker.
After the 60-minute shaking period, the wells were washed thoroughly with dilution buffer 3 times to prepare for the phosphorylation in the next step.
Duplicate DYRK1A phosphorylation reactions were performed in the wells with 100 μL reaction mixtures each containing 25 mM HEPES, pH 7.4, 100 mM NaCl, 5 mM MgCl2, 100 μM ATP, 1% DMSO, and 200 ng/mL DYRK1A. Separate reaction mixtures included a no-inhibitor DMSO control, harmine inhibitor, and different concentrations of the inhibitors of the present invention. The plate was left on a temperature-controlled shaker for 30 minutes at 30° C.
The phosphorylation reactions were terminated after the 30-minute shaking, by the addition of 20 mM EDTA. The wells were then washed with PBST (0.02% Tween 20).
HT-PRD phosphorylation was determined by the sandwich antibody staining protocol. […] The extent of the phosphorylation reactions was monitored at λ=405 nm. […]

Where [1] appears, read: tested at 5 μg/mL, significantly greater than DMSO and any of the other fractions at the same level of use (FIG. 1).

Take `Cc1c(O)cc(C(C)C)c(O)c1Cc1cc(O)c(C(C)C)cc1O` [compound XVIII]: under setting [1], the “inhibition of DYRK1A” value was “very pronounced inhibition of DYRK1A”.

Regarding `Cc1c(O)cc(C(C)C)c(O)c1CC1=CC(=O)C(C(C)C)=CC1=O` [compound XVII], the “inhibition of DYRK1A” value under setting [1] was “very pronounced inhibition of DYRK1A”.

With `COc1ccc2c3c([nH]c2c1)C(C)=NCC3` [harmaline, reference compound], the “inhibition of DYRK1A” value (reference inhibitor, text says 100 μg/mL, sample table lists harmine 2 μM and 10 μM (FIG. 1)) is on record as “showed inhibition of DYRK1A”.

The record behind these values is US11603343B2, “Inhibition of DYRK1A kinase” (Ankh Life Sciences Limited, priority 2020, dated 2023).
